From ChEMBL document CHEMBL5728660, “Monosaccharide amine and 3-nitro-2-phenyl-2H-chromene based inhibitors of glucose kinases” (2021)

Experiment: enzyme-inhibition screening assay: The 16 compounds showing substantial inhibition against TcGlcK at compound concentrations of 20 μM were then examined in a confirmatory assay in which the amino sugar analogues were at a concentration of 20 μM and were tested against the assay's only coupling enzyme, G6PDH, to verify enzyme activity; the assay was performed in quadruplicate. […] These confirmed hits included representatives from all three monosaccharide scaffolds tested (i.e., D-GlcN, D-ManN, and D-GalN).

## O=C(N[C@H]1C(O)O[C@H](CO)[C@@H](O)[C@@H]1O)c1ccccc1 (stereo partly specified)
  IC50: 16.1 µM
